In patent US6855730B2, “3-methylidenyl-2-indolinone modulators of protein kinase” (Sugen, Inc., priority 1998, dated 2005) one finds IC50 data, which are given here for twelve compounds.

Type in all cases: cell-based
The target of test [1] is T1, 3T3 cell line genetically engineered to express human EGF-R (Homo sapiens, UniProt P00533).
T1 construct: expressed in transfected cells; host or cells: 3T3
Put plainly: EGF-induced BrdU incorporation assay. The conditions noted are these: read-out: BrdU EGF driven IC50. The procedure:
The cellular/catalytic assays described herein are performed in an ELISA format. The general procedure is as follows: a compound is introduced to cells expressing the test kinase, either naturally or recombinantly, for a selected period of time after which, if the test kinase is a receptor, a ligand known to activate the receptor is added. The cells are lysed and the lysate is transferred to the wells of an ELISA plate previously coated with a specific antibody recognizing the substrate of the enzymatic phosphorylation reaction. Non-substrate components of the cell lysate are washed away and the amount of phosphorylation on the substrate is detected with an antibody specifically recognizing phosphotyrosine compared with control cells that were not contacted with a test compound. The cellular/biologic assays described herein measure the amount of DNA made in response to activation of a test kinase, which is a general measure of a proliferative response. The general procedure for this assay is as follows: a compound is introduced to cells expressing the test kinase, either naturally or recombinantly, for a selected period of time after which, if the test kinase is a receptor, a ligand known to activate the receptor is added. After incubation at least overnight, a DNA labeling reagent such as Bromodeoxyuridine (BrdU) or 3H-thymidine is added. The amount of labeled DNA is detected with either an anti-BrdU antibody or by measuring radioactivity and is compared to control cells not contacted with a test compound. […]
Protocol • (1) Cells are seeded at 8000 cells/well in 10% CS, 2mM Gin in DMEM, in a 96 well plate. Cells are incubated overnight at 37° C. in 5% CO2. • (2) After 24 hours, the cells are washed with PBS, and then are serum starved in serum free medium (0% CS DMEM with 0.1% BSA) for 24 hours. • (3) On day 3, ligand (EGF, 2 nM, prepared in DMEM with 0.1% BSA) and test compounds are added to the cells simultaneously. The negative control wells receive serum free DMEM with 0.1% BSA only, the positive control cells receive the ligand (EGF) but no test compound. Test compounds are prepared in serum free DMEM with ligand in a 96 well plate, and serially diluted for 7 test concentrations. • (4) After 20 hours of ligand activation, diluted BrdU labeling reagent (1:100 in DMEM, 0.1% BSA) is added and the cells are incubated with BrdU (final concentration=10 μM) for 1.5 hours. • (5) After incubation with labeling reagent, the medium is removed by decanting and tapping the inverted plate on a paper towel. FixDenat solution is added (50 μl/well) and the plates are incubated at room temperature for 45 minutes on a plate shaker. • (6) The FixDenat solution is thoroughly removed by decanting and tapping the inverted plate on a paper towel. Milk is added (5% dehydrated milk in PBS, 200 μl/well) as a blocking solution and the plate is incubated for 30 minutes at room temperature on a plate shaker. • (7) The blocking solution is removed by decanting and the wells are washed once with PBS. Anti-BrdU-POD solution (1:100 dilution in PBS, 1% BSA) is added (100 μ/well) and the plate is incubated for 90 minutes at room temperature on a plate shaker. • (8) The antibody conjugate is thoroughly removed by decanting and rinsing the wells 5 times with PBS, and the plate is dried by inverting and tapping on a paper towel. • (9) TMB substrate solution is added (100 μl/well) and incubated for 20 minutes at room temperature on a plate shaker until color development is sufficient for photometric detection. • (10) The absorbance of the samples are measured at 410 nm (in “dual wavelength” mode with a filter reading at 490 nm, as a reference wavelength) on a Dynatech ELISA plate reader.
(Uptake of a labelled nucleoside into DNA is a usual measure of proliferation.)

The next test has as its system SKOV3 cells. The experiment in a line: SKOV3 growth assay (2% FBS). The note with it: Homo sapiens, SK-OV-3, read-out: SKOV3 growth (2% FBS) IC50.
The next test has as its system A431 cells. The experiment in a line: A431 growth assay (2% FBS). The note with it: Homo sapiens, A-431, read-out: A431 growth (2% FBS) IC50.

The IC50 is the midpoint of a concentration-inhibition curve.

Turning to `COc1ccc(/C=C2/C(=O)Nc3ccc(F)cc32)cc1C1CCCC1` [Example 11, 3-(3-Cyclopentyl-4-methoxybenzylidene)-5-fluoro-1,3-dihydroindol-2-one], the IC50 in test [1] came to 23.3 µM; in the test on SKOV3 cells, 15 µM; in the test on A431 cells, 12.5 µM.
On the same counts, the results for `COc1ccc(C=C2C(=O)Nc3ccccc32)cc1-c1cccc(NC(C)=O)c1` [Example 29, N-[2′-Methoxy-5′-(2-oxo-1,2-dihydroindol-3-ylidenemethyl)-biphenyl-3-yl]-acetamide] are 15.2 µM, 7.9 µM and 5.6 µM.
On the same counts, the results for `COc1ccc(/C=C2/C(=O)Nc3ccc(Br)cc32)cc1-c1ccccc1` [Example 13, 5-Bromo-3-(6-methoxybiphenyl-3-ylmethylene)-1,3-dihydroindol-2-one] are 26.6 µM, 21.3 µM and 9 µM.
For the compound `COc1ccc(C=C2C(=O)Nc3cc(NC(C)=O)ccc32)cc1-c1cccc(NC(C)=O)c1` (mixture of isomers) [Example 63, N-[3-(3′-Acetylamino-6-methoxybiphenyl-3-ylmethylene)-2-oxo-2,3-dihydro-1H-indol-6-yl]-acetamide], the IC50 was 30.5 µM in test [1], over 25 µM in the test with SKOV3 cells and 11 µM in the test on A431 cells.
For the compound `COc1ccc(/C=C2/C(=O)Nc3ccccc32)cc1C1CCCC1` [Example 10, 3-(3-Cyclopentyl-4-methoxybenzylidene)-1,3-dihydroindol-2-one], the figures for the IC50 (in test [1]; in the test on SKOV3 cells; in the test on A431 cells) were 29 µM, 11.2 µM and 8.5 µM, respectively.
With `COc1c(C(C)C)cc(/C=C2/C(=O)Nc3cc(NC(C)=O)ccc32)cc1C(C)C` [Example 3, N-[3-(3,5-Diisopropyl-4-methoxybenzylidene)-2-oxo-2,3-dihydro-1H-indol-6-yl]-acetamide], the values for the IC50 (in test [1]; in the test with SKOV3 cells; with A431 cells) were 11 µM, 2.6 µM and 2.2 µM, respectively.
For the compound `CC1(C)CCc2cc(/C=C3/C(=O)Nc4ccc(Cl)cc43)ccc2O1` [Example 15, 5-Chloro-3-(2,2-dimethyl-chroman-6-ylmethylene)-1,3-dihydroindol-2-one], the IC50 was 7.8 µM in test [1], 7 µM in the test with SKOV3 cells and 4.8 µM with A431 cells.
As for `COC(=O)c1ccc2c(c1)/C(=C\c1cc(C(C)C)c(OC)c(C(C)C)c1)C(=O)N2` [Example 6, 3-(3,5-Diisopropyl-4-methoxybenzylidene)-2-oxo-2,3-dihydro-1H-indole-5-carboxylic acid methyl ester], the IC50 in test [1] is 12 µM; in the test with SKOV3 cells, 19.4 µM; with A431 cells, 2.9 µM.
For the compound `COc1ccc(/C=C2/C(=O)Nc3ccc(Cl)cc32)cc1-c1cccs1` [Example 59, 5-chloro-3-(4-Methoxy-3-thiophen-2-ylbenzylidene)-1,3-dihydroindol-2-one], the IC50 amounted to 44.5 µM in test [1], 17.2 µM with SKOV3 cells and 6 µM in the test on A431 cells.
Consider `COc1cc(C)c(C=C2C(=O)Nc3ccc(Cl)cc32)cc1C(C)C` [Example 9, 5-Chloro-3-(5-isopropyl-4-methoxy-2-methylbenzylidene)-1,3-dihydroindol-2-one], for which the IC50 in test [1] is 11 µM; in the test with SKOV3 cells, 14.5 µM; with A431 cells, 17.3 µM.
The matching figures for `COc1ccc(/C=C2/C(=O)Nc3ccccc32)cc1C1CCCCC1` [Example 12, 3-(3-Cyclohexyl-4-methoxybenzylidene)-1,3-dihydroindol-2-one]: 30.6 µM, 10.1 µM and 7.9 µM.
As to `COc1ccc(/C=C2/C(=O)Nc3cc(NC(C)=O)ccc32)cc1-c1cccs1` [Example 31, N-[3-(4-Methoxy-3-thiophen-2-ylbenzylidene)-2-oxo-2,3-dihydro-1H-indol-6-yl]-acetamide], the results for the concentration for half-maximal inhibition (IC50) (in test [1]; in the test on SKOV3 cells; in the test on A431 cells) were 38.6 µM, 0.4 µM and 0.3 µM, respectively.
